Reference: patent US5891882A, “Benzopyranopyrrole and benzopyranopyridine α-1 adenergic compounds” (priority 1997, dated 1999)
Structures can show the parent of a compound that is named as a salt.

Tests used:
[1] = molecular target: T1, α-1B adrenoreceptor (rat spleen) (Rattus norvegicus, UniProt P15823); test: Functional antagonism: inhibition of phenylephrine-induced contraction of rat spleen; format: cell-based; settings: rat spleen, phenylephrine-induced contraction, Schild plot
T1 construct: from tissue; host or cells: rat spleen
T1 sequence (P15823 1-515): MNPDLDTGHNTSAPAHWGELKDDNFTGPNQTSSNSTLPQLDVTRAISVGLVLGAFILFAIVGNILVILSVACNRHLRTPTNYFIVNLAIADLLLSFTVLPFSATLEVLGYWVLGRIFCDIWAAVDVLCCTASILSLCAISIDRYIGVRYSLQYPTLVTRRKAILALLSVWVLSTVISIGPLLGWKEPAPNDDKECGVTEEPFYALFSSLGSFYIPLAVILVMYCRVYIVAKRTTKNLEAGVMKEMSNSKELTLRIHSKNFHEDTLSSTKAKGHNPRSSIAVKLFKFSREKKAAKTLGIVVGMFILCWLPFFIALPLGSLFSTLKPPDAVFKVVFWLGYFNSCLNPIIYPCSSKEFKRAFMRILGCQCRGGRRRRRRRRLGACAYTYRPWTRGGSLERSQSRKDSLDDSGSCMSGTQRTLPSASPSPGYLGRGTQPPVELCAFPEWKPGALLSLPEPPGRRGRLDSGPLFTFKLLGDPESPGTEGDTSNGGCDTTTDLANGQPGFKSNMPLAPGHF
Description: (§1) Functional assays indicative of pharmacologically defined α-1 adrenoreceptors were used to further characterize compounds. Inhibition of phenylephrine (PE)-induced contraction of canine prostate smooth muscle can be correlated with α-1A adrenoreceptor activation. […] For each of these models, agonist dose response curves were repeated against increasing concentrations of test agent to derive a Schild plot [log ([…]) against log (molarity of test agent)] to determine the pA2.

[2] = molecular target: T2, α-1 Adrenoceptors (Rat Aorta) (Rattus norvegicus, UniProt P23944); test: Functional antagonism at α-1 adrenoceptors, rat aorta; format: cell-based; settings: read-out: In Vitro Characterization (pA2) Rat Aorta (converted)
T2 construct: Rat Aorta; from tissue; host or cells: rat aorta
T2 sequence (P23944 1-561): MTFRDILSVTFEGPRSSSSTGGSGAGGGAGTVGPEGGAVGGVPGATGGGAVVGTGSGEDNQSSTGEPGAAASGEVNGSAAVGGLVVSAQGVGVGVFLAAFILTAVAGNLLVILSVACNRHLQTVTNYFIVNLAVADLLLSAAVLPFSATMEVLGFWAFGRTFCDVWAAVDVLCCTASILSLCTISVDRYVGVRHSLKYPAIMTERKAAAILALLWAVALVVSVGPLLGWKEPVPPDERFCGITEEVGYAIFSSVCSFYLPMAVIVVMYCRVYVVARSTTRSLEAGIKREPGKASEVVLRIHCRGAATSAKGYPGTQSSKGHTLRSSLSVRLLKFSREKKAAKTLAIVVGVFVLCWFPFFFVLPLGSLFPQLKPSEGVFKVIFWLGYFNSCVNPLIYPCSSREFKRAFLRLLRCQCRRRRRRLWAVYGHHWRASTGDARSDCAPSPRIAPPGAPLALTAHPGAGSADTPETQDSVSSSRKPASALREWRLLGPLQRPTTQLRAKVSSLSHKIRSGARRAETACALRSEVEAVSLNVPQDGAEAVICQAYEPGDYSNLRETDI
Description: as §1

[3] = molecular target: T3, α-1A adrenoreceptor (canine prostate smooth muscle) (Canis lupus, UniProt A0A8I3NK63); test: Functional antagonism: inhibition of phenylephrine-induced contraction of canine prostate strips; format: cell-based; settings: Schild plot
T3 construct: antagonism of phenylephrine-induced contraction (pA2, Schild)
T3 sequence (A0A8I3NK63 1-466): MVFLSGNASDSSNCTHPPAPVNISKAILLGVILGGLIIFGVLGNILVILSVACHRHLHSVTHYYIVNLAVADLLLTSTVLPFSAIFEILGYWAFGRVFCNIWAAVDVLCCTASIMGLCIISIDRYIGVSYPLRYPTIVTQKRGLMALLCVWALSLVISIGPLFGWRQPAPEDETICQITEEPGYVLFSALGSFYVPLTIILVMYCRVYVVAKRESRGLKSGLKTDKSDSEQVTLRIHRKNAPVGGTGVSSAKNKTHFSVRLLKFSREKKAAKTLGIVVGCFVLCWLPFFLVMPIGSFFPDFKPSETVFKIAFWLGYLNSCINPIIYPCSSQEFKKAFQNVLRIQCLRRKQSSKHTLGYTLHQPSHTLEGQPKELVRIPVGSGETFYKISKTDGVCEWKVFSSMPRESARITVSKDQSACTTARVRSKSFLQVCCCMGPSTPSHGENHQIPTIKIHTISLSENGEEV
Description: Canine prostate strips were used in vitro as previously described (Hieble, J. P., Boyce, Caine, M., Fed Proc., 45: 2609-2614 (1986)), to determine antagonist potencies phenylephrine-induced contractions.
as §1
Canine prostate strips were used in vitro as previously described (Hieble, J. P., Boyce, A. J. and Caine, M., Fed. Proc., 45: 2609-2614 (1986)), to determine antagonist potencies against phenylephrine-induced contractions.

α-1 adrenoreceptor = settings: cited from earlier work; for dose limiting side effects: BPH treatment; for urinary flow rates and subjective symptom scores: longer term studies, BPH

Row | In Vitro Characterization (pA2) Dog Prostate [3] | SMILES | In Vitro Characterization (pA2) Rat Spleen [1] | Kb [2] [nM] | other results
1 | – | COc1cccc2c1[C@@H]1CN(CCCCn3c(=O)[nH]c4c(sc5ncccc54)c3=O)C[C@@H]1CO2 [Example 34, hydrochloride] | 8.12 | 0.646 | –
2 | – | COc1cccc2c1[C@@H]1CN(CCCCn3c(=O)[nH]c4c(sc5c(Cl)nccc54)c3=O)C[C@H]1CO2 [Example 54] | 7.31 | – | –
3 | – | COc1cc2nc(N3CCN(C(=O)C4COc5ccccc5O4)CC3)nc(N)c2cc1OC (stereo not shown) [Doxazosin, doxazosin] | – | – | dose limiting side effects (α-1 adrenoreceptor): hypotension, dizziness, and muscle fatigue; urinary flow rates and subjective symptom scores (α-1 adrenoreceptor): significant improvements in urinary flow rates and subjective symptom scores; clinical efficacy in BPH (α-1 adrenoreceptor; non-selective α-1 blockers): Clinical efficacy
4 | – | O=C(NC1CCN(CCc2c[nH]c3ccccc23)CC1)c1ccccc1 [indoramin] | – | – | dose limiting side effects (α-1 adrenoreceptor): hypotension, dizziness, and muscle fatigue; urinary flow rates and subjective symptom scores (α-1 adrenoreceptor): significant improvements in urinary flow rates and subjective symptom scores
5 | – | COc1ccc2c(n1)sc1c(=O)n(CCCCN3C[C@H]4COc5cccc(OC)c5[C@@H]4C3)c(=O)[nH]c12 [Example 46, 3-[4-((3aS,9bR)-trans-9-Methoxy-1,2,3,3a,4,9b-hexahydro-[1]-benzopyrano[3,4-c]pyrrol-2-yl)butyl]-7-methoxy-pyrido[3',2':4,5]thieno[3,2-d]pyrimidine-2,4(1H,3H)-dione hydrochloride] | 8.12 | 0.155 | –
6 | 9.91 | COc1cccc2c1[C@@H]1CN(CCCCn3c(=O)[nH]c4c(sc5ncc(Cl)nc54)c3=O)C[C@H]1CO2 [Example 13, 3-[4((3aS,9bR)-trans-9-Methoxy-1,2,3,3a,4,9b-hexahydro-[1]-benzopyrano[3,4-c]pyrrol-2-yl)butyl]-8-chloro-pyrazino[2',3':4,5]thieno[3,2-d]pyrimidine-2,4(1H,3H)-dione hydrochloride] | – | 0.0407 | –
7 | 8.69 | COc1cccc2c1[C@@H]1CN(CCCCn3c(=O)[nH]c4c(sc5cccnc54)c3=O)C[C@@H]1CO2 [Example 1, 3-[4-((3aR,9bR)-cis-9-Methoxy-1,2,3,3a,4,9b-hexahydro-[1]-benzopyrano[3,4-c]pyrrol-2-yl)butyl]-pyrido[2',3':4,5]thieno[3,2-d]pyrimidine-2,4(1H,3H)-dione hydrochloride] | – | – | –
8 | – | COc1cccc2c1[C@@H]1CN(CCCCn3c(=O)[nH]c4c(sc5ncccc54)c3=O)C[C@H]1CO2 [Example 44, 3-[4-((3aS,9bR)-trans-9-Methoxy-1,2,3,3a,4,9b-hexahydro-[1]-benzopyrano[3,4-c]pyrrol-2-yl)butyl]-pyrido[3',2':4,5]thieno[3,2-d]pyrimidine-2,4(1H,3H)-dione hydrochloride] | 8.35 | 0.0398 | –
9 | 6.65 | COc1ccc2c(c1)OC[C@H]1CN(CCn3c(=O)[nH]c4c(sc5ccccc54)c3=O)C[C@@H]21.Cl (racemic) [Example 63, 3-[2-((±)-cis-7-Methoxy-1,2,3,3a,4,9b-hexahydro-[1]-benzopyrano[3,4-c]pyrrol-2-yl)ethyl]-[1]benzthieno[3,2-d]pyrimidine-2,4(1H,3H)-dione hydrochloride] | – | – | –
10 | 9.15 | COc1ccc2sc3c(=O)n(CCCCN4C[C@H]5COc6cccc(OC)c6[C@@H]5C4)c(=O)[nH]c3c2n1 [Example 26, 3-[4-((3aS,9bR)-trans-9-Methoxy-1,2,3,3a,4,9b-hexahydro-[1]-benzopyrano[3,4-c]pyrrol-2-yl)butyl]-8-methoxy-pyrido[2',3':4,5]thieno[3,2-d]pyrimidine-2,4(1H,3H)-dione dihydrochloride] | – | 0.0661 | –
11 | – | COc1cc2[nH]c(=O)n(CCCCN3C[C@@H]4COc5ccccc5[C@@H]4C3)c(=O)c2cc1OC.Cl (racemic) [Example 81, 3-[4-((±)-cis-1,2,3,3a,4,9b-hexahydro-[1]-benzopyrano[3,4-c]pyrrol-2-yl)butyl]-6,7-dimethoxy-quinazoline-2,4(1H,3H)-dione hydrochloride] | 7.41 | – | –
12 | 6.91 | Cl.O=c1[nH]c2c(sc3ccccc32)c(=O)n1CCN1C[C@@H]2COc3ccccc3[C@@H]2C1 (racemic) [Example 69, 3-[2-((±)-cis-1,2,3,3a,4,9b-hexahydro-[1]-benzopyrano[3,4-c]pyrrol-2-yl)ethyl]-[1]-benzthieno[3,2-d]pyrimidine-2,4(1H,3H)-dione hydrochloride] | – | – | –
13 | – | COc1cccc2c1[C@@H]1CN(CCCCn3c(=O)[nH]c4c(sc5nc(Cl)ccc54)c3=O)C[C@H]1CO2 [Example 47, 3-[4-((3aS,9bR)-trans-9-Methoxy-1,2,3,3a,4,9b-hexahydro-[1]-benzopyrano[3,4-c]pyrrol-2-yl)butyl]-7-chloro-pyrido[3',2':4,5]thieno[3,2-d]pyrimidine-2,4(1H,3H)-dione hydrochloride] | 7.95 | 0.204 | –

Row | SMILES | In Vitro Characterization (pA2) Dog Prostate [3] | In Vitro Characterization (pA2) Rat Spleen [1] | Kb [2] [nM] | other results
14 | COc1cccc2c1[C@@H]1CN(CCCCn3c(=O)[nH]c4c(sc5ncc(-c6ccccc6)nc54)c3=O)C[C@@H]1CO2 [Example 39, 3-[4-((3aR,9bR)-cis-9-Methoxy-1,2,33a,4,9b-hexahydro-[1]-benzopyrano[3,4-c]pyrrol-2-yl)butyl]-8-phenyl-pyrazino[2',3':4,5]thieno[3,2-d]pyrimidine-2,4(1H,3H)-dione hydrochloride] | 8.52 | 6.83 | 12.9 | –
15 | COc1cccc2c1OC[C@H]1CN(CCn3c(=O)[nH]c4c(sc5ccccc54)c3=O)C[C@@H]21.Cl (racemic) [Example 67, 3-[2-((±)-cis-6-Methoxy-1,2,3,3a,4,9b-hexahydro-[1]-benzopyrano[3,4-c]pyrrol-2-yl)ethyl]-[1]-benzthieno[3,2-d]pyrimidine-2,4(1H,3H)-dione hydrochloride] | 7.33 | 6.83 | – | –
16 | COc1cccc2c1[C@@H]1CN(CCCCn3c(=O)[nH]c4c(sc5ncc(-c6ccccc6)nc54)c3=O)C[C@H]1CO2 [Example 50, 3-[4-((3aS,9bR)-trans-9-Methoxy-1,2,3,3a,4,9b-hexahydro-[1]-benzopyrano[3,4-c]pyrrol-2-yl)butyl]-8-phenyl-pyrazino[2',3':4,5]thieno[3,2-d]pyrimidine-2,4(1H,3H)-dione hydrochloride] | 8.45 | 6.5 | 0.389 | –
17 | COc1cccc2c1[C@@H]1CCN(CCCCn3c(=O)[nH]c4c(sc5cccnc54)c3=O)C[C@H]1CO2 [Example 95, 3-[4-((4aS,10bR)-trans-10-Methoxy-1,3,4,4a,5,10b-hexahydro-2H-[1]-benzopyrano[3,4-c]pyrido-3-yl)butyl]-pyrido[2',3':4,5]thieno[3,2-d]pyrimidine-2,4(1H,3H)-dione dihydrochloride] | 8.58 | – | – | –
